Tests used:
[1] = system: Silverleaf Whitefly (Bemisia argentifolii); test: Silverleaf whitefly test on sprayed cotton plants; type: in vivo; conditions: 72 h, spray, 3 days after treatment, in comparison with untreated controls
Source text: B.5 Silverleaf Whitefly (Bemisia argentifolii)
(§1) The active compounds were formulated in cyclohexanone as a 10,000 ppm solution supplied in tubes. The tubes were inserted into an automated electrostatic sprayer equipped with an atomizing nozzle and they served as stock solutions for which lower dilutions were made in 50% acetone:50% water (v/v). A nonionic surfactant (Kinetic( ) was included in the solution at a volume of 0.01% (v/v).
Cotton plants at the cotyledon stage (one plant per pot) were sprayed by an automated electrostatic plant sprayer equipped with an atomizing spray nozzle. The plants were dried in the sprayer fume hood and then removed from the sprayer. Each pot was placed into a plastic cup and about 10 to 12 whitefly adults (approximately 3-5 days old) were introduced. The insects were collected using an aspirator and a nontoxic Tygon® tubing connected to a barrier pipette tip. The tip, containing the collected insects, was then gently inserted into the soil containing the treated plant, allowing insects to crawl out of the tip to reach the foliage for feeding. Cups were covered with a reusable screened lid. […] Mortality was assessed 3 days after treatment, compared to untreated control plants.

[2] = system: yellowfever mosquito larvae (Aedes aegypti); test: Larval mosquito water treatment assay; conditions: 120 h
[3] = system: Green Peach Aphid (Myzus persicae); test: Green peach aphid spray test on bell pepper plants; type: in vivo; conditions: 120 h, after 5 days, in comparison with untreated controls
Source text: B.8 Green Peach Aphid (Myzus persicae)
as §1, with “are” for “were”, “acetone: 50%” for “acetone:50%”, “(Kinetic®) is” for “(Kinetic( ) was”
Bell pepper plants at the first true-leaf stage are infested prior to treatment by placing heavily infested leaves from the main colony on top of the treatment plants. Aphids are allowed to transfer overnight to accomplish an infestation of 30-50 aphids per plant and the host leaves are removed. The infested plants are then sprayed by an automated electrostatic plant sprayer equipped with an atomizing spray nozzle. The plants are dried in the sprayer fume hood, removed, and then maintained in a growth room under fluorescent lighting in a 24-hr photoperiod at about 25° C. and about 20-40% relative humidity. Aphid mortality on the treated plants, relative to mortality on untreated control plants, is determined after 5 days.

[4] = system: antibodies against lysergic acid-bovine serum albumin conjugates; conditions: antibodies raised in rabbits against lysergic acid conjugates; Arens et al, Planta Medica (1980); cited from earlier work
[5] = system: Cowpea Aphid (aphis craccivora); test: Cowpea aphid spray test on potted cowpea plants; type: in vivo; conditions: assessed after 24, 72 and 120 hours, in comparison with untreated controls
Protocol: (§2) If not otherwise specified the test solutions are prepared as follow:
(§3) The active compound is dissolved at the desired concentration in a mixture of 1:1 (vol:vol) distilled water:acteon. The test solution is prepared at the day of use and in general at concentrations of […].
B.2 Cowpea Aphid (aphis craccivora)
Potted cowpea plants colonized with approximately 100-150 aphids of various stages were sprayed after the pest population has been recorded. Population reduction was assessed after 24, 72, and 120 hours.

[6] = system: Vetch Aphid (Megoura viciae); test: Vetch aphid leaf disk microtiter plate test; type: in vivo; conditions: foliar, 120 h, leaf disks sprayed, 5 days, in comparison with untreated controls
Protocol: B.7 Vetch Aphid (Megoura viciae)
For evaluating control of vetch aphid (Megoura viciae) through contact or systemic means the test unit consisted of 24-well-microtiter plates containing broad bean leaf disks.
The compounds were formulated using a solution containing 75% v/v water and 25% v/v DMSO. Different concentrations of formulated compounds were sprayed onto the leaf disks at 2.5 μl, using a custom built micro atomizer, at two replications.
After application, the leaf disks were air-dried and 5-8 adult aphids placed on the leaf disks inside the microtiter plate wells. The aphids were then allowed to suck on the treated leaf disks and incubated at about 23±1° C. and about 50±5% relative humidity for 5 days. Aphid mortality and fecundity was then visually assessed.

[7] = system: Cotton Aphid (Aphis gossypi); test: Cotton aphid spray test on infested cotton plants; type: in vivo; conditions: 120 h, after 5 days, in comparison with untreated controls
Source text: B.1 Cotton Aphid (Aphis gossypi)
as §1, with “acetone: 50%” for “acetone:50%”, “(Kinetic®)” for “(Kinetic( )”
Cotton plants at the cotyledon stage were infested with aphids prior to treatment by placing a heavily infested leaf from the main aphid colony on top of each cotyledon. Aphids were allowed to transfer overnight to accomplish an infestation of 80-100 aphids per plant and the host leaf was removed. The infested plants were then sprayed by an automated electrostatic plant sprayer equipped with an atomizing spray nozzle. The plants were dried in the sprayer fume hood, removed from the sprayer, and then maintained in a growth room under fluorescent lighting in a 24-hr photoperiod at 25° C. and 20-40% relative humidity. Aphid mortality on the treated plants, relative to mortality on untreated control plants, was determined after 5 days.

[8] = system: Rice Green Leafhopper (Nephotettix virescens); test: Rice green leafhopper test on sprayed rice seedlings; type: in vivo; conditions: spray, after 72 hours, in comparison with untreated controls
Protocol: B.9 Rice Green Leafhopper (Nephotettix virescens)
Rice seedlings are cleaned and washed 24 hours before spraying. The active compounds are formulated in 50:50 acetone:water (vol:vol), and 0.1% vol/vol surfactant (EL 620) is added. Potted rice seedlings are sprayed with 5 ml test solution, air dried, placed in cages and inoculated with 10 adults. Treated rice plants are kept at about 28-29° C. and relative humidity of about 50-60%. Percent mortality is recorded after 72 hours.

[9] = system: Striped Flea Beetle (Phylotretta striolata); test: Striped flea beetle leaf-dip test on Chinese cabbage; type: in vivo; conditions: 300 ppm, 72 hours after treatment, in comparison with untreated controls
Protocol: B.10 Striped Flea Beetle (Phylotretta striolata)
The active compound is dissolved at the desired concentration in a mixture of 1:1 (vol:vol) distilled water:acetone. Add surfactant (Alkamuls® EL620) at the rate of 0.1% (vol/vol). The test solution is prepared at the day of use.
Leaves of Chinese cabbage were dipped in test solution and air-dried. Treated leaves were placed in pertri dishes lined with moist filter paper and inoculated with 20 adults. Mortality was recorded 72 hours after treatment. Feeding damage were also recorded using scale of 0-100%.

[10] = system: Red spider Mite (Tetranychus kanzawai); test: Red spider mite test on sprayed cowpea beans; type: in vivo; conditions: 300 ppm, spray, after 72 h, in comparison with untreated controls
Protocol: B.6 Red spider Mite (Tetranychus kanzawai)
The active compound was dissolved at the desired concentration in a mixture of 1:1 (v/v) distilled water:acetone. A surfactant (Alkamuls® EL 620) was added at the rate of 0.1% (v/v).
Potted cowpea beans of 7-10 days of age were cleaned with tap water and sprayed with 5 ml of the test solution using air driven hand atomizer. The treated plants were allowed to air dry and afterwards inculated with 20 or more mites by clipping a cassava leaf section with known mite population. Treated plants were placed inside a holding room at about 25-27° C. and about 50-60% relatice humidity.
ortality by counting the live mites 72 HAT. Percent mortality was assessed after 72 h.

[11] = system: Diamond Back Moth (plutella xylostella); test: Diamond back moth leaf-dip test on Chinese cabbage; type: in vivo; conditions: 300 ppm, recorded 24, 72 and 120 hours after treatment, in comparison with untreated controls
Protocol: as §2, §3
B.3 Diamond Back Moth (plutella xylostella)
Leaves of Chinese cabbage were dipped in test solution and air-dried. Treated leaves were placed in petri dished lined with moist filter paper. Mortality was recorded 24, 72, and 120 hours after treatment.

[12] = system: Orchid Thrips (dichromothrips corbetti); test: Orchid thrips floral-immersion test; type: in vivo; conditions: 300 ppm, after 4 days, in comparison with untreated controls
Protocol: B.4 Orchid Thrips (dichromothrips corbetti)
Dichromothrips corbetti adults used for bioassay are obtained from a colony maintained continuously under laboratory conditions. For testing purposes, the test compound is diluted to a concentration of 300 ppm (wt compound: vol diluent) in a 1:1 mixture of acetone:water (vol:vol), plus 0.01% vol/vol Kinetic® surfactant.
Thrips potency of each compound is evaluated by using a floral-immersion technique. Plastic petri dishes are used as test arenas. All petals of individual, intact orchid flowers are dipped into treatment solution and allowed to dry. Treated flowers are placed into individual petri dishes along with 10-15 adult thrips. The petri dishes are then covered with lids. All test arenas are held under continuous light and a temperature of about 28° C. for duration of the assay. After 4 days, the numbers of live thrips are counted on each flower, and along inner walls of each petri dish. The level of thrips mortality is extrapolated from pre-treatment thrips numbers.

Compound: CN1CC2(C)CC23c2cccc4[nH]cc(c24)CC13 (stereo not drawn) [compound 1-1, cycloclavin]
- mortality at 300 ppm [1]: ≥ 75%
- mortality at 10 ppm [2]: ≥ 60%
- mortality at 300 ppm [3]: ≥ 75%
- cross reaction activity [4]: did not show cross reaction activity
- mortality at 300 ppm [5]: ≥ 75%
- mortality at 2500 ppm [6]: ≥ 75%
- mortality at 300 ppm [7]: ≥ 75%
- mortality at 300 ppm [8]: ≥ 75%

Compound: N-methylcarbamoyl-(1aR,3aR,9bR)-1a,2,3,3a,4,6-hexahydro-1a,3-dimethyl-1H-cycloprop[c]indolo[4,3-ef]indole [compound 1-2]
- mortality [9]: at least 75%
- mortality [10]: at least 75%
- mortality [11]: at least 75%
- mortality [12]: at least 75%
